# Experimental data: patent US8551956B2, “Compositions containing peptides with non-natural amino acids and methods of use” (Avon Products, Inc., priority 2006, dated 2013)
# Tested on: Fibronectin
# Test: Stimulation of fibronectin production in Normal Human Dermal Fibroblasts-Adult, competitive inhibition ELISA of conditioned medium
# Assay type: cell-based
# Conditions: in vitro, concentration not given
# Description: Normal Human Dermal Fibroblasts-Adult (Cascade Biologics) were cultured in 12-well tissue culture treated plates and treated for 72 hours in the presence or absence of test actives. Following incubation, the conditioned medium from each treatment was collected in a 1.7 mL microcentrifuge tube and frozen at −80° C. for subsequent analysis. The assay was in the format of a competitive inhibition ELISA.
# Human fibronectin was pre-coated on the wells except for one row, which served as a reference. Standards and samples were pre-incubated with polyclonal rabbit antibody to human fibronectin. The polyclonal antibody was bound to the fibronectin in the standard dilutions, and in the sample, if present. The mixture was then transferred to the human fibronectin-coated plate. Free rabbit anti-human fibronectin was bound to the fibronectin on the plate. Goat anti-rabbit IgG HRP-conjugate reacted with bound rabbit anti-fibronectin. When HRP substrate was added, a blue color developed. The reaction was stopped by the addition of an acid, changing the color to yellow. This color was quantitated using a microplate reader set at 450 nm. The intensity of the color was inversely proportional to the amount of fibronectin in the original sample.
compound,measurement,value
NCCCC[C@H](N)C(=O)NCCCCC(=O)NCCCC[C@H](N)C(=O)O [KavaK],"Fibronectin production, more compared to untreated control fibroblasts",28%
